Molecular target: P. falciparum apicoplast DNA polymerase (Pf-apPOL) (Plasmodium falciparum, UniProt Q8ILY1)
Test: Fluorescence-based high-throughput DNA polymerase assay (molecular beacon), primary screen and dose-response
Type: biochemical
Details: for DNA Pol: 90 min, 10 µM
Procedure: The HT assay employs a molecular beacon, a stem-loop DNA template with a Cy3 dye and the Black Hole Quencher on the 3′ and 5′ ends of the DNA, respectively. Pf-apPOL concentration is based on a calculated absorptivity of ε280 = 56750 M^−1 cm^−1. Reactions were carried out at 25 °C, using Corning 3575 […] (well-volume, 20 µL). Assays testing for compound inhibition composed of reaction buffer (pH 7.9 in 50 mM potassium acetate, 20 mM Tris-acetate and 10 mM magnesium acetate), Pf-apPOL (20 nM), DNA substrate (20 nM), dNTPs (6 µM), and compound (10 µM in DMSO). The DNA and nucleotide substrates (dNTPs) were at concentrations of 20 nM and 6 µM, respectively, in the assay. Pf-apPOL was incubated in the reaction buffer with dNTPs and the compound of interest (10 µM, in the assay) at 25 °C for 10 min. The DNA substrate was then added and the reaction was allowed to proceed for 90 min at 25 °C.
Each assay plate contained 16 negative controls (no Pf-apPOL, DMSO present) and 16 positive controls (Pf-apPOL present, no DMSO). The fluorescence of each well was determined using a BioTek Synergy Neo fluorescence plate reader using excitation and emission wavelengths of 555 and 570 nm, respectively.
In the above, Min is the average of fluorescence emission of the negative controls (substrate only), Max the average fluorescence emission from the positive controls (enzyme + substrate), and Test the emission from the assays in the presence of compounds (enzyme + compound + substrates). […] […] The IC50 of each compound was determined using Equation (2): (2) IC50= Vmax/(1+ (I/IC50)^n)
In the above, n measures cooperativity, with n > 1 indicating synergistic binding of more than a single molecule of the compound.
To identify apPOL inhibitors we utilised our previously developed high-throughput DNA polymerase assay. The HT assay is based on a molecular beacon DNA template that forms a stem-loop with a Cy3 dye and the Black Hole Quencher on the 3′ and 5′ ends of the DNA, respectively. DNA polymerase activity extends an annealed primer through the stem region, displacing the fluorophore from the quencher, thereby increasing its fluorescence (Figure 1(A)). The assay accurately recapitulates the kinetic behaviour of apPOL, as measured through more conventional low-throughput gel-based assays. The Z′ factor for the assay described here was 0.9 across all plates (data not shown).
Figure 1. High-throughput screening. (A) The fluorescent-based DNA polymerase assay used to screen the compound libraries. The DNA template strand is a hairpin loop with a primer annealed to the loop. The 3’ end of the primer is 11 bases away from the 6 bp duplex. Strand displacement activity of the DNA polymerase separates the Cy3 dye from the Black hole quencher leading to an increase in fluorescent signal. (B) The high-throughput assay workflow. The DNA polymerase is incubated with […] compound for 10 min prior to addition of the hairpin substrate. The reaction is quenched at 3 different time points and the fluorescent signal is measured and % inhibition is determined using the provided equation.

P. falciparum apicoplast DNA polymerase (Pf-apPOL), sequence (Q8ILY1 entry or part of it): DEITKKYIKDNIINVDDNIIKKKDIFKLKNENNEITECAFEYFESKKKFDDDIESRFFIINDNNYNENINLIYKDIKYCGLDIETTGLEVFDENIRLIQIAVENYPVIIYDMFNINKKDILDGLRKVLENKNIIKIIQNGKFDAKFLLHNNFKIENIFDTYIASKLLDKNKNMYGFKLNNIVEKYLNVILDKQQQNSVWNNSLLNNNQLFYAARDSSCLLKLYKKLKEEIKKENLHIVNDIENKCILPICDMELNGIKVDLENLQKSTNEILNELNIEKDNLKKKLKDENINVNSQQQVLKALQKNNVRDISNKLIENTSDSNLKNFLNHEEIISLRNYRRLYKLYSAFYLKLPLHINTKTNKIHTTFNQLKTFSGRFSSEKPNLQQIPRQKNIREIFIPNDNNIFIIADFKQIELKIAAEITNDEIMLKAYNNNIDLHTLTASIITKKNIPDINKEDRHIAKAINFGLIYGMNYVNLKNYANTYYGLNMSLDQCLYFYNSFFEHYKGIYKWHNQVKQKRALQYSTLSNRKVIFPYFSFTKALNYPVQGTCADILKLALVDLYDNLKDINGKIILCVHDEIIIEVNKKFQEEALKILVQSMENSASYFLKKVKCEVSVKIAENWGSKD

## Cc1ccc(C)c(CSc2nc(C3CCCCC3)c(C#N)c(=O)[nH]2)c1 [Molecule 6, N#Cc1c(=O)[nH]c(nc1C1CCCCC1)SCc1cc(C)ccc1C]
'DNA Pol' of the 186 hits list (primary screen result), unit not given
  DNA Pol: 98
DRC-1, concentration 2.5
  % inhibition Apo pol 10': 19.6577%
DRC-1, concentration 5
  % inhibition Apo pol 10': 38.2184%
DRC-1, concentration 10
  % inhibition Apo pol 10': 71.2419%
DRC-1, concentration 20
  % inhibition Apo pol 10': 88.8023%
DRC-1, concentration 40
  % inhibition Apo pol 10': 92.9931%
DRC-1, concentration 80
  % inhibition Apo pol 10': 97.5171%
DRC-1, 90', concentration 2.5
  % inhibition Apol 90': 7.563%
DRC-1, 90', concentration 5
  % inhibition Apol 90': 29.5473%
DRC-1, 90', concentration 10
  % inhibition Apol 90': 66.2339%
DRC-1, 90', concentration 20
  % inhibition Apol 90': 83.4926%
DRC-1, 90', concentration 40
  % inhibition Apol 90': 89.6774%
DRC-1, 90', concentration 80
  % inhibition Apol 90': 97.7776%
DRC-1, 180', concentration 2.5
  % inhibition apPOL 180': -0.2009%
DRC-1, 180', concentration 5
  % inhibition apPOL 180': 17.3135%
DRC-1, 180', concentration 10
  % inhibition apPOL 180': 54.7895%
DRC-1, 180', concentration 20
  % inhibition apPOL 180': 77.2836%
DRC-1, 180', concentration 40
  % inhibition apPOL 180': 85.5131%
DRC-1, 180', concentration 80
  % inhibition apPOL 180': 97.5591%
DRC-2, 40', concentration 2.5 (unit not given)
  % inhibition Apol 40': 13%
DRC-2, 90', concentration 40 (unit not given)
  % inhibition ApPOL 90': 80%
DRC-2, 180', concentration 5 (unit not given)
  % inhibition apPOL 180': 10%
DRC-2, 180', concentration 40 (unit not given)
  % inhibition apPOL 180': 80%
DRC-2, 180', concentration 80 (unit not given)
  % inhibition apPOL 180': 80%
DRC-2, concentration 2.5
  % inhibition Apo pol 5': 9%
DRC-2, concentration 5
  % inhibition Apo pol 5': 13%
DRC-2, concentration 5 (unit not given)
  % inhibition Apo pol 5': 13%
DRC-2, concentration 20
  % inhibition Apo pol 5': 59%
DRC-2, concentration 40
  % inhibition Apo pol 5': 63%
DRC-2, concentration 80
  % inhibition Apo pol 5': 61%
DRC-2, 40', concentration 2.5
  % inhibition Apol 40': 13%
DRC-2, 40', concentration 5
  % inhibition Apol 40': 18%
DRC-2, 40', concentration 10
  % inhibition Apol 40': 51%
DRC-2, 40', concentration 20
  % inhibition Apol 40': 69%
DRC-2, 40', concentration 40
  % inhibition Apol 40': 77%
DRC-2, 40', concentration 80
  % inhibition Apol 40': 75%
DRC-2, 90', concentration 2.5
  % inhibition ApPOL 90': 10%
DRC-2, 90', concentration 2.5 (unit not given)
  % inhibition ApPOL 90': 10%
DRC-2, 90', concentration 5
  % inhibition ApPOL 90': 16%
DRC-2, 90', concentration 10
  % inhibition ApPOL 90': 50%
DRC-2, 90', concentration 20
  % inhibition ApPOL 90': 71%
DRC-2, 90', concentration 40
  % inhibition ApPOL 90': 80%
DRC-2, 90', concentration 80
  % inhibition ApPOL 90': 78%
DRC-2, 180', concentration 2.5
  % inhibition apPOL 180': 5.53%
DRC-2, 180', concentration 5
  % inhibition apPOL 180': 10%
DRC-2, 180', concentration 20
  % inhibition apPOL 180': 67%
DRC-2, 180', concentration 40
  % inhibition apPOL 180': 80%
DRC-2, 180', concentration 80
  % inhibition apPOL 180': 80%
Primary screen value of the library well, unit not given
  DNA Pol: 98

## Cc1cc(C)cc(-n2nc3c(c2NC(=O)c2ccco2)CSC3)c1 [KU0055926]
DRC-1, concentration 2.5
  % inhibition Apo pol 10': 8.0326%
DRC-1, concentration 5
  % inhibition Apo pol 10': 29.0516%
DRC-1, concentration 10
  % inhibition Apo pol 10': 59.7607%
DRC-1, concentration 20
  % inhibition Apo pol 10': 82.6519%
DRC-1, concentration 40
  % inhibition Apo pol 10': 88.4046%
DRC-1, concentration 80
  % inhibition Apo pol 10': 87.3935%
DRC-1, 90', concentration 2.5
  % inhibition Apol 90': -0.9298%
DRC-1, 90', concentration 5
  % inhibition Apol 90': 15.258%
DRC-1, 90', concentration 10
  % inhibition Apol 90': 43.5557%
DRC-1, 90', concentration 20
  % inhibition Apol 90': 72.7845%
DRC-1, 90', concentration 40
  % inhibition Apol 90': 86.0941%
DRC-1, 90', concentration 80
  % inhibition Apol 90': 88.1488%
DRC-1, 180', concentration 2.5
  % inhibition apPOL 180': -5.803%
DRC-1, 180', concentration 5
  % inhibition apPOL 180': 4.111%
DRC-1, 180', concentration 10
  % inhibition apPOL 180': 27.2882%
DRC-1, 180', concentration 20
  % inhibition apPOL 180': 60.1388%
DRC-1, 180', concentration 40
  % inhibition apPOL 180': 79.5226%
DRC-1, 180', concentration 80
  % inhibition apPOL 180': 84.9587%
DRC-2, concentration 2.5
  % inhibition Apo pol 5': 11%
DRC-2, concentration 5
  % inhibition Apo pol 5': 21%
DRC-2, concentration 10
  % inhibition Apo pol 5': 38%
DRC-2, concentration 20
  % inhibition Apo pol 5': 50%
DRC-2, concentration 40
  % inhibition Apo pol 5': 54%
DRC-2, concentration 80
  % inhibition Apo pol 5': 54%
DRC-2, 40', concentration 2.5
  % inhibition Apol 40': 12%
DRC-2, 40', concentration 5
  % inhibition Apol 40': 24%
DRC-2, 40', concentration 10
  % inhibition Apol 40': 41%
DRC-2, 40', concentration 20
  % inhibition Apol 40': 60%
DRC-2, 40', concentration 40
  % inhibition Apol 40': 69%
DRC-2, 40', concentration 80
  % inhibition Apol 40': 71%
DRC-2, 90', concentration 2.5
  % inhibition ApPOL 90': 10%
DRC-2, 90', concentration 5
  % inhibition ApPOL 90': 21%
DRC-2, 90', concentration 10
  % inhibition ApPOL 90': 38%
DRC-2, 90', concentration 20
  % inhibition ApPOL 90': 60%
DRC-2, 90', concentration 40
  % inhibition ApPOL 90': 71%
DRC-2, 90', concentration 80
  % inhibition ApPOL 90': 74%
DRC-2, 180', concentration 2.5
  % inhibition apPOL 180': 6.36%
DRC-2, 180', concentration 5
  % inhibition apPOL 180': 13%
DRC-2, 180', concentration 10
  % inhibition apPOL 180': 27%
DRC-2, 180', concentration 20
  % inhibition apPOL 180': 53%
DRC-2, 180', concentration 40
  % inhibition apPOL 180': 68%
DRC-2, 180', concentration 80
  % inhibition apPOL 180': 74%
conc. 5, DRC-2
  % inhibition Apo pol 5': 21%
conc. 5, 90', DRC-2
  % inhibition ApPOL 90': 21%
conc. 10, DRC-2
  % inhibition Apo pol 5': 38%
conc. 10, 90', DRC-2
  % inhibition ApPOL 90': 38%
conc. 20, 40', DRC-2
  % inhibition Apol 40': 60%
conc. 20, 90', DRC-2
  % inhibition ApPOL 90': 60%
conc. 40, DRC-2
  % inhibition Apo pol 5': 54%
conc. 40, 90', DRC-2
  % inhibition ApPOL 90': 71%
conc. 80, DRC-2
  % inhibition Apo pol 5': 54%
conc. 80, 40', DRC-2
  % inhibition Apol 40': 71%
conc. 80, 90', DRC-2
  % inhibition ApPOL 90': 74%
conc. 80, 180', DRC-2
  % inhibition apPOL 180': 74%
Primary screen value by plate and well
  DNA Pol: 58
Primary screen value of the 186 hits, unit not given
  DNA Pol: 58

Source: paper PMC9090415, “Discovery of small molecule inhibitors of Plasmodium falciparum apicoplast DNA polymerase” (Journal of Enzyme Inhibition and Medicinal Chemistry, 2022)
